The target in data set [1] is T1, Growth hormone secretagogue receptor type 1 (Homo sapiens, UniProt Q92847). Briefly: Agonist activity at SNAP-tagged human GHSR expressed in HEK293 cells assessed as stimulation of ghrelin-induced increase in IP1 accumulation at 10^-5 M measured after 30 mins by IP1-d2 derivative based HTRF assay relative to ghrelin. In kind it is functional, cell-based. Conditions: filed as agonist, dose 1.0 10^-5M. For orientation: TR-FRET usually uses a lanthanide donor and a delayed reading to cut background.

The target in data set [2] is T1, Growth hormone secretagogue receptor type 1. The data set is described as follows: Agonist activity at SNAP-tagged human GHSR expressed in HEK293 cells assessed as stimulation of ghrelin-induced increase in IP1 accumulation at 10^-5 M measured after 30 mins by IP1-d2 derivative based HTRF assay relative to control. In kind it is functional, cell-based. As to conditions: filed as agonist, dose 1.0 10^-5M.

Data set [3] is described as follows: Toxicity in wild type C57BL6/J mouse assessed as effect on body weight at 1 nmol, icv injection for 2 mins via cannula. As to conditions: in vivo, icv_or_intrathecal.
Data set [4] can be described thus: Toxicity in wild type C57BL6/J mouse assessed as reduced activity at 1 nmol, icv injection for 2 mins via cannula. As to conditions: in vivo, icv_or_intrathecal.
Data set [5] is described as follows: Toxicity in wild type C57BL6/J mouse assessed as subdued behavior at 1 nmol, icv injection for 2 mins via cannula. Conditions: in vivo, icv_or_intrathecal.
The nature of data set [6]: Toxicity in wild type C57BL6/J mouse assessed as effect on labored movement at 1 nmol, icv injection for 2 mins via cannula. As to conditions: in vivo, icv_or_intrathecal.
Data set [7] in a line: Toxicity in wild type C57BL6/J mouse assessed as altered breathing rate at 1 nmol, icv injection for 2 mins via cannula. Conditions: in vivo, icv_or_intrathecal.
Data set [8] can be described thus: Toxicity in wild type C57BL6/J mouse assessed as hunched posture at 1 nmol, icv injection for 2 mins via cannula. Conditions: in vivo, icv_or_intrathecal.
Data set [9] can be described thus: Toxicity in wild type C57BL6/J mouse assessed as appearance of spiky coat at 1 nmol, icv injection for 2 mins via cannula. As to conditions: in vivo, icv_or_intrathecal.
Data set [10] in a line: Toxicity in wild type C57BL6/J mouse assessed as sickness-like behavior at 1 nmol, icv injection for 2 mins via cannula. Conditions: in vivo, icv_or_intrathecal.
For a further data set, the system named is Mus musculus. Briefly: Suppression of compensatory hyperphagia in wild type C57BL6/J mouse assessed as reduction in cumulative food intake at 1 nmol, icv administered at 8 hrs interval for 48 hrs followed by refeeding at 2 hrs post last dose and measured for 7 days post refeeding. As to conditions: time 9 day. More on the design: scale not given: the % may be the effect or the level left. Format: functional.

Data set [11] is described as follows: Anti-orexigenic activity in wild type C57BL6/J mouse assessed as reduction in ghrelin-induced food intake at 1 nmol, icv administered via cannula for 2 mins pretreated for 15 mins followed by ghrelin stimulation and measured after 2 hrs relative to control. Also noted: scale not given: the % may be the effect or the level left. Conditions: time 135 min, 2.25 h. In kind it is functional.

Data set [12] can be described thus: Toxicity in wild type C57BL6/J mouse assessed as effect on early dark cycle food intake at 1 nmol, icv injection for 2 mins via cannula measured after 5 hrs (reference value: 2591 +/- 197 mg). As to conditions: in vivo, icv_or_intrathecal.
Data set [13] addresses Growth hormone secretagogue receptor type 1 (Rattus norvegicus) (UniProt O08725). Briefly: Inverse agonist activity at GHSR in Wistar rat pancreatic islets assessed as suppression of ghrelin-induced inhibition of glucose-stimulated insulin secretion at 1 uM after 1 hr in presence of glucose. Conditions: Pancreas, filed as inverse agonist. In kind it is tissue-based.
The nature of data set [14]: Solubility of the compound in water. Format: physicochemical.
In data set [15] the target is T1, Growth hormone secretagogue receptor type 1. The data set is described as follows: Inverse agonist activity at SNAP-tagged human GHSR expressed in HEK293 cells assessed as inhibition of ghrelin-induced IP1 response measured after 30 mins by HTRF assay. Format: functional, cell-based.
For data set [16] the target is unchanged. The data set is described as follows: Displacement of red-ghrelin from SNAP-tagged human GHSR expressed in HEK293 cells incubated for 3 hrs at 4 degC or for 1 hr at room temperature by HTRF assay. In kind it is cell-based.
Data set [17] shares this target. Conditions: HEK293, filed as inverse agonist, dose 1.0 10^-5M, time 30.0 min.
For data set [18] the target is unchanged. The data set is described as follows: Antagonist activity at SNAP-tagged human GHSR expressed in HEK293 cells assessed as inhibition of ghrelin-induced IP1 accumulation at 10^-5M measured after 30 mins by IP1-d2 derivative based HTRF assay relative to ghrelin. Format: functional, cell-based. Conditions: filed as antagonist, dose 1.0 10^-5M.
The target is the same in data set [19]. The data set is described as follows: Antagonist activity at SNAP-tagged human GHSR expressed in HEK293 cells assessed as inhibition of ghrelin-induced IP1 accumulation at 10^-5M measured after 30 mins by IP1-d2 derivative based HTRF assay relative to control. In kind it is functional, cell-based. As to conditions: filed as antagonist, dose 1.0 10^-5M.

≈ marks a conversion by molar mass, not a printed value. Calls of active or inactive are those of the source. No cut-off for these calls is given here.

T1 sequence (Q92847 whole entry): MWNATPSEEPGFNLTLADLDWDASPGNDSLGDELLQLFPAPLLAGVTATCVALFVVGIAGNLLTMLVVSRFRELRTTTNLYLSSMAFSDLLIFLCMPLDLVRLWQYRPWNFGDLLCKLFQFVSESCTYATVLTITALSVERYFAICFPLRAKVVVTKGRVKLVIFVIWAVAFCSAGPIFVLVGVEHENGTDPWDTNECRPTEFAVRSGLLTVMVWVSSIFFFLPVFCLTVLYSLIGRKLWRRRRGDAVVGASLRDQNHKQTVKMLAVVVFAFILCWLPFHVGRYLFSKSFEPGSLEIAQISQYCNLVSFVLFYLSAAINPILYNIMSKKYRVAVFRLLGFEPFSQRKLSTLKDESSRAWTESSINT
Growth hormone secretagogue receptor type 1 (Rattus norvegicus), sequence (O08725 whole entry): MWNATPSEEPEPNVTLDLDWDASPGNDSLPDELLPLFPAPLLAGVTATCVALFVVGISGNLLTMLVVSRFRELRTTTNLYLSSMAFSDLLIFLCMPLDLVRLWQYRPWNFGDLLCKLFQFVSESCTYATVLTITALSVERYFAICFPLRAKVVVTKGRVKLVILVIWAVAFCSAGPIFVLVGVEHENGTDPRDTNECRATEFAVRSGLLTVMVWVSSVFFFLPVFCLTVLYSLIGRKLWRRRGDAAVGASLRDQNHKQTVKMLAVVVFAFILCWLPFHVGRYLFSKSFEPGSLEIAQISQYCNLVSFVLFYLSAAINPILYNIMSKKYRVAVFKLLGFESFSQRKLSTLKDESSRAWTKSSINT

In the case of `COc1ccc(Cn2c(CCc3ccccc3)nnc2[C@@H](Cc2c[nH]c3ccccc23)NC(=O)CNC(=O)C#Cc2ccccc2)cc1`, the %max in [1] stood at 69%; in data set [2], 95%.
For `COc1ccc(Cn2c(CCc3ccccc3)nnc2[C@@H](Cc2c[nH]c3ccccc23)NC(=O)CNC(=O)/C(C#N)=C/c2ccc(O)cc2)cc1`, the Activity result in [3], in data set [4], in data set [5], in data set [6], in data set [7] and in data set [8] was “Non-Toxic” each time. In addition, the Activity result was “Non-Toxic” in [9]; “Non-Toxic” in data set [10]; 12.4% in the data set on Mus musculus; 30.3% in data set [11]; 2179 mg in data set [12]. For the same compound, the outcome in data set [13] was Active. In addition, the solubility (usually the concentration that dissolves in the medium under given conditions) in data set [14] (buffer) is reported as “Soluble”. Further, in data set [15], the concentration for a half-maximal effect (EC50) – broadly, the concentration at which the effect is half-maximal – amounted to 27 nM. The Ki (in general, a dissociation constant, usually derived from enzyme kinetics or from competition with a known ligand) in data set [16] is 3 nM. The compound also gave an Emax in data set [17] of 83%.
For `COc1ccc(/C=C(\C#N)C(=O)OCC(=O)N[C@H](Cc2c[nH]c3ccccc23)c2nnc(CCc3ccccc3)n2Cc2ccc(OC)cc2)cc1`, the Ki in data set [16] stood at 13 nM.
Regarding `COc1ccc(Cn2c(CCc3ccccc3)nnc2[C@@H](Cc2c[nH]c3ccccc23)NC(=O)CNC(=O)/C(C#N)=C/c2ccc(N(C)C)cc2)cc1`, the EC50 in data set [15] was found to be 89 nM. Besides, affinity in [16] was put at a Ki of 2.4 nM. Moreover, in [17], the Emax came out at 78%.
`COc1ccc(/C=C(\C#N)C(=O)N[C@@H](C)C(=O)N[C@H](Cc2c[nH]c3ccccc23)c2nnc(CCc3ccccc3)n2Cc2ccc(OC)cc2)cc1`: the EC50 in data set [15] worked out at 1.4 nM. In data set [16], this compound registered a Ki of 3 nM. For the same compound, the Emax in [17] was 78%.
`COc1ccc(Cn2c(CCc3c[nH]c4ccccc34)nnc2[C@@H](Cc2c[nH]c3ccccc23)NC(=O)CNC(=O)/C(C#N)=C/c2ccc(O)cc2)cc1` showed a Ki in [16] of 30 nM.
For the compound `CCN(CC)CCc1nnc([C@@H](Cc2c[nH]c3ccccc23)NC(=O)CNC(=O)/C(C#N)=C/c2ccc(OC)cc2)n1Cc1ccc(OC)cc1`, the EC50 in data set [15] stood at 35 nM. Also, the affinity in data set [16] corresponds to a Ki of 10 nM. Besides, the Emax in [17] is 69%.
`CNCC(=O)N[C@H](Cc1c[nH]c2ccccc12)c1nnc(CCc2ccccc2)n1Cc1ccc(OC)cc1`: the %max in data set [1] was 76%; in [2], 100%.
Regarding `COc1ccc(Cn2c(CCc3ccccc3)nnc2[C@@H](Cc2c[nH]c3ccccc23)NC(=O)CNC(=O)C(C)(C)C#N)cc1`, the %max in data set [18] and in data set [19] was 70% throughout.
In the case of `COc1ccc(/C=C(\C#N)C(=O)NCCC(=O)N[C@H](Cc2c[nH]c3ccccc23)c2nnc(CCc3ccccc3)n2Cc2ccc(OC)cc2)cc1`, in [15], the EC50 worked out at 3.6 nM. Moreover, the affinity in [16] corresponds to a Ki of 14 nM. Moreover, the Emax in data set [17] was found to be 75%.
Consider `COc1ccc(/C=C(\C#N)C(=O)NCC(=O)N[C@H](Cc2c[nH]c3ccccc23)c2nnc(CCc3ccccc3)n2Cc2ccc(OC)cc2)cc1`, for which the EC50 in data set [15] turned out to be 50 nM. In addition, affinity in data set [16] was put at a Ki of 0.5 nM. In data set [17], this compound came in with an Emax of 86%.
`COc1ccc(/C=C(\C#N)C(=O)NCC(=O)N[C@H](Cc2c[nH]c3ccccc23)c2nnc(CCc3c[nH]c4ccccc34)n2Cc2ccc(OC)cc2)cc1`: the solubility in data set [14] (water, read-out: solubility) was 3.8 µg/mL (≈ 5.19 µM).
As for `COc1ccc(Cn2c(CCc3ccccc3)nnc2[C@@H](Cc2c[nH]c3ccccc23)NC(=O)CNC(=O)/C=C/c2ccc(F)cc2)cc1`, the %max was 71% in data set [18] and 74% in data set [19].
Turning to `COc1ccc(Cn2c(CCc3ccccc3)nnc2[C@@H](Cc2c[nH]c3ccccc23)NC(=O)CNC(=O)/C(C#N)=C/c2ccc(C)cc2)cc1`, the EC50 in [15] was determined as 21.5 nM. In [16], this compound came in with a Ki of 1 nM. Further, in data set [17], the Emax is 82%.
`COc1ccc(CC(N)C(=O)NCC(=O)N[C@H](Cc2c[nH]c3ccccc23)c2nnc(CCc3ccccc3)n2Cc2ccc(OC)cc2)cc1` (single isomer, unassigned): in [15], the EC50 turned out to be 62 nM. In addition, the affinity in data set [16] corresponds to a Ki of 17 nM. For the same compound, the Emax in data set [17] came out at 43%.
Regarding `COc1ccc(Cn2c(CCc3ccccc3)nnc2[C@@H](Cc2c[nH]c3ccccc23)NC(=O)CNC(=O)/C(C#N)=C/c2c[nH]c3ccccc23)cc1`, the EC50 in data set [15] is 28 nM. The compound also gave a Ki in data set [16] of 6.3 nM. The compound further registered an Emax in data set [17] of 79%.
For `COc1ccc(Cn2c(CCN3CCOCC3)nnc2[C@@H](Cc2c[nH]c3ccccc23)NC(=O)CNC(=O)/C(C#N)=C/c2ccccc2)cc1`, the Emax in data set [17] was determined as 49%.
Consider `CC(C)C[C@H](NC(=O)[C@H](CC(C)C)NC(=O)[C@@H](Cc1c[nH]c2ccccc12)NC(=O)[C@H](Cc1ccccc1)NC(=O)[C@@H](Cc1cccc2ccccc12)NC(=O)[C@@H](N)CCCCN)C(N)=O`, for which the Activity result in [3], in data set [4], in data set [5], in data set [6], in data set [7] and in data set [8] was “Non-Toxic” in each case. Besides, the Activity result in data set [9] was “Non-Toxic”; in data set [10], “Non-Toxic”; with Mus musculus, 20.1%; in data set [11], 67.6%; in [12] it was 2623 mg.
For `COc1ccc(Cn2c(CCc3ccccc3)nnc2[C@@H](Cc2c[nH]c3ccccc23)NC(=O)CN(C)C)cc1`, the %max is 76% in [1] and 96% in data set [2].
As for `COc1ccc(Cn2c(CCc3ccccc3)nnc2[C@@H](Cc2c[nH]c3ccccc23)NC(=O)CNC(=O)C(C#N)Cc2ccccc2)cc1` (stereo not given in full), the %max in data set [18] is 70%; in data set [19], 72%.
The like results for `COc1ccc(Cn2c(CCc3ccccc3)nnc2[C@@H](Cc2c[nH]c3ccccc23)NC(=O)CN)cc1` were, in that order, 65% and 65%.
`COc1ccc(Cn2c(CCN3CCOCC3)nnc2[C@@H](Cc2c[nH]c3ccccc23)NC(=O)CNC(=O)/C(C#N)=C/c2ccc(N(C)C)cc2)cc1`: in data set [15], the EC50 turned out to be 6 nM. The compound also had a Ki in [16] of 6.3 nM. The Emax in data set [17] came out at 64%.
Turning to `COc1ccc(Cn2c(CCc3ccccc3)nnc2[C@@H](Cc2c[nH]c3ccccc23)NC(=O)CNC(=O)/C(C#N)=C/c2ccc(F)cc2)cc1`, in data set [15], the EC50 was found to be 14.2 nM. The same compound returned an inhibition constant (Ki) in [16] of 0.6 nM. The compound further yielded an Emax in [17] of 76%.

The values above are taken from ChEMBL document CHEMBL4665788, “Development of Nonpeptidic Inverse Agonists of the Ghrelin Receptor (GHSR) Based on the 1,2,4-Triazole Scaffold” (J Med Chem, 2020).
